Where a name gives a salt, the structure may show the parent alone.
test system: cancer cell lines; test: Growth inhibitory effects on the panel of cancer cell lines; type: cell-based; details: drug 10 μM, 72 hours, WST-1
Text: Subculture the different types of cancer cells.
For cell viability analysis, the cardiovascular drugs include peripheral vasodilator reaming enhancer, angiotensin converting agent inhibitor, hypotension and shock therapeutic agent, diuretic, antiarrhythmic agent, antiarralciton drug, antihypertensive agent, anticoagulant thrombolytic agent, cardiac tonic, intravenous (hemorrhoids) therapeutic agent, are used to test the inhibition effect of cancer cell.

Q: For `COc1ccc([C@@H]2Sc3ccccc3N(CCN(C)C)C(=O)[C@@H]2OC(C)=O)cc1` [Diltiazem HCl (Tiazac), Diltiazem HCl], which “inhibition effect on different cancer cell lines (in words)” value is on record?
A: Its value is “significant inhibition effect”.

Q: Which “inhibition effect on different cancer cell lines (in words)” value does the source give for `CN(CCOc1ccc(NS(C)(=O)=O)cc1)CCc1ccc(NS(C)(=O)=O)cc1` [Dofetilide (Tikosyn), Dofetilide] here?
A: Its value is “significant inhibition effect”.

Q: How did the “inhibition effect on different cancer cell lines (in words)” value turn out when `COc1cc2nc(N3CCN(C(=O)C4COc5ccccc5O4)CC3)nc(N)c2cc1OC` (stereo not shown) [Doxazosin mesylate] was run?
A: The value was “significant inhibition effect”.

Q: `CC1=NN(c2ccccc2)C(=O)C1` [Edaravone (MCI-186), Edaravone] was tested. Which “inhibition effect on different cancer cell lines (in words)” value did it give?
A: Its value is “significant inhibition effect”.

Q: With `CCOC(=O)[C@H](CCc1ccccc1)N[C@@H](C)C(=O)N1CCC[C@H]1C(=O)O` [Enalapril maleate (Vasotec), Enalapril maleate] as the compound, how does the “inhibition effect on different cancer cell lines (in words)” value read?
A: Its value is “significant inhibition effect”.

Q: With `C[C@H](N[C@@H](CCc1ccccc1)C(=O)O)C(=O)N1CCC[C@H]1C(=O)O.O.O` [Enalaprilat dehydrate] as the compound, how does the “inhibition effect on different cancer cell lines (in words)” value read?
A: The value was “significant inhibition effect”.

Q: For `COC(=O)[C@@H]1CC2=CC(=O)CC[C@]2(C)[C@@]23O[C@@H]2C[C@@]2(C)[C@@H](CC[C@@]24CCC(=O)O4)[C@H]13` [Eplerenone], which “inhibition effect on different cancer cell lines (in words)” value is on record?
A: Its value is “significant inhibition effect”.

Q: For `CCCCc1ncc(/C=C(\Cc2cccs2)C(=O)O)n1Cc1ccc(C(=O)O)cc1` [Eprosartan Mesylate], which “inhibition effect on different cancer cell lines (in words)” value is on record?
A: Its value is “significant inhibition effect”.

Q: `COC(=O)CCc1ccc(OCC(O)CNC(C)C)cc1` (stereo not shown) [Esmolol HCl] was tested. Which “inhibition effect on different cancer cell lines (in words)” value did it give?
A: The value was “significant inhibition effect”.

Q: For `O=S(=O)(O)c1cc(O)ccc1O` [Ethamsylate], which “inhibition effect on different cancer cell lines (in words)” value is on record?
A: The value was “significant inhibition effect”.

Q: `O=C1[C@H](CC[C@H](O)c2ccc(F)cc2)[C@@H](c2ccc(O)cc2)N1c1ccc(F)cc1` [Ezetimibe (Zetia), Ezetimibe] was tested. Which “inhibition effect on different cancer cell lines (in words)” value did it give?
A: Its value is “significant inhibition effect”.

Q: With `NC(N)=Nc1nc(CSCCC(N)=NS(N)(=O)=O)cs1` [Famotidine (Pepcid), Famotidine] as the compound, how does the “inhibition effect on different cancer cell lines (in words)” value read?
A: The value was “significant inhibition effect”.

Q: Which “inhibition effect on different cancer cell lines (in words)” value does the source give for `CNC[C@H](O)[C@@H](O)[C@H](O)[C@H](O)CO.CNC[C@H](O)[C@@H](O)[C@H](O)[C@H](O)CO.C[C@@H](O[C@H]1OCCN(Cc2nn(P(=O)(O)O)c(=O)[nH]2)[C@H]1c1ccc(F)cc1)c1cc(C(F)(F)F)cc(C(F)(F)F)c1` [Fosaprepitant dimeglumine] here?
A: Its value is “significant inhibition effect”.

Q: For `Cc1ccc(C)c(OCCCC(C)(C)C(=O)O)c1` [Gemfibrozil (Lopid), Gemfibrozil], which “inhibition effect on different cancer cell lines (in words)” value is on record?
A: The value was “significant inhibition effect”.

Q: For `C[C@@H]1C(=O)O[C@H]2C[C@@]34[C@H]5C[C@@H](C(C)(C)C)[C@]36[C@@H](OC(=O)[C@@H]6O)O[C@@]4(C(=O)O5)[C@]21O` [Ginkgolide A], which “inhibition effect on different cancer cell lines (in words)” value is on record?
A: Its value is “significant inhibition effect”.

Q: How did the “inhibition effect on different cancer cell lines (in words)” value turn out when `NCCc1c[nH]cn1.O=P(O)(O)O` [Histamine Phosphate] was run?
A: The value was “significant inhibition effect”.

Q: `NS(=O)(=O)c1cc2c(cc1Cl)NCNS2(=O)=O` [Hydrochlorothiazide] was tested. Which “inhibition effect on different cancer cell lines (in words)” value did it give?
A: Its value is “significant inhibition effect”.

Q: With `CCOC(=O)[C@H](CCc1ccccc1)N[C@@H](C)C(=O)N1C(=O)N(C)C[C@H]1C(=O)O` [Imidapril (Tanatril) HCl, Imidapril HCl] as the compound, how does the “inhibition effect on different cancer cell lines (in words)” value read?
A: The value was “significant inhibition effect”.

Q: With `CCCCC1=NC2(CCCC2)C(=O)N1Cc1ccc(-c2ccccc2-c2nnn[nH]2)cc1` [Irbesartan (Avapro), Irbesartan] as the compound, how does the “inhibition effect on different cancer cell lines (in words)” value read?
A: The value was “significant inhibition effect”.

Q: How did the “inhibition effect on different cancer cell lines (in words)” value turn out when `C[N+](C)(C)C[C@H](O)CC(=O)[O-]` [L-carnitine (Levocarnitine), L-carnitine] was run?
A: The value was “significant inhibition effect”.

Q: With `CCOC(=O)C1=C(C)NC(C)=C(C(=O)OCC)C1c1ccccc1/C=C/C(=O)OC(C)(C)C` [Lacidipine (Lacipil, Motens), Lacidipine] as the compound, how does the “inhibition effect on different cancer cell lines (in words)” value read?
A: Its value is “significant inhibition effect”.

Q: `Nc1cccc2c1CN(C1CCC(=O)NC1=O)C2=O` (stereo not shown) [Lenalidomide] was tested. Which “inhibition effect on different cancer cell lines (in words)” value did it give?
A: Its value is “significant inhibition effect”.

Q: `CC(Oc1c(Cl)cccc1Cl)C1=NCCN1` (stereo not shown) [Lofexidine HCl] was tested. Which “inhibition effect on different cancer cell lines (in words)” value did it give?
A: The value was “significant inhibition effect”.

Q: With `COc1ccc(CN2CCN(C(c3ccc(F)cc3)c3ccc(F)cc3)CC2)c(OC)c1OC` [Lomerizine HCl] as the compound, how does the “inhibition effect on different cancer cell lines (in words)” value read?
A: The value was “significant inhibition effect”.

Q: Which “inhibition effect on different cancer cell lines (in words)” value does the source give for `COc1ccc(OC)c(C(O)C(C)N)c1` (stereo not shown) [Methoxamine HCl] here?
A: Its value is “significant inhibition effect”.

Q: For `CN1C(CCl)Nc2cc(Cl)c(S(N)(=O)=O)cc2S1(=O)=O` (stereo not shown) [Methyclothiazide], which “inhibition effect on different cancer cell lines (in words)” value is on record?
A: Its value is “significant inhibition effect”.

Q: `Cc1cc2c(cc1S(N)(=O)=O)S(=O)(=O)CCC2` [Meticrane] was tested. Which “inhibition effect on different cancer cell lines (in words)” value did it give?
A: Its value is “significant inhibition effect”.

Q: With `Cc1ccccc1N1C(=O)c2cc(S(N)(=O)=O)c(Cl)cc2NC1C` (stereo not shown) [Metolazone (Zaroxolyn), Metolazone] as the compound, how does the “inhibition effect on different cancer cell lines (in words)” value read?
A: Its value is “significant inhibition effect”.

Q: For `CC[C@H](C)C(=O)O[C@H]1CCC=C2C=C[C@H](C)[C@H](CC[C@@H]3C[C@@H](O)CC(=O)O3)[C@H]21` [Mevastatin], which “inhibition effect on different cancer cell lines (in words)” value is on record?
A: The value was “significant inhibition effect”.

Q: How did the “inhibition effect on different cancer cell lines (in words)” value turn out when `Cc1cccc(C)c1OCC(C)N` (stereo not shown) [Mexiletine HCl] was run?
A: Its value is “significant inhibition effect”.

Q: `O=C(O)[C@H](CC(=O)N1C[C@H]2CCCC[C@H]2C1)Cc1ccccc1` [Mitiglinide calcium] was tested. Which “inhibition effect on different cancer cell lines (in words)” value did it give?
A: The value was “significant inhibition effect”.

Q: With `O=C1c2c(O)ccc(O)c2C(=O)c2c(NCCNCCO)ccc(NCCNCCO)c21` [Mitoxantrone Hydrochloride] as the compound, how does the “inhibition effect on different cancer cell lines (in words)” value read?
A: The value was “significant inhibition effect”.

Q: `N=C(N)c1ccc2cc(OC(=O)c3ccc(N=C(N)N)cc3)ccc2c1` [Nafamostat mesylate] was tested. Which “inhibition effect on different cancer cell lines (in words)” value did it give?
A: The value was “significant inhibition effect”.

Q: With `O=C(NCCO[N+](=O)[O-])c1cccnc1` [Nicorandil (Ikorel), Nicorandil] as the compound, how does the “inhibition effect on different cancer cell lines (in words)” value read?
A: Its value is “significant inhibition effect”.

Q: `CS(=O)(=O)Nc1ccc([N+](=O)[O-])cc1Oc1ccccc1` [Nimesulide] was tested. Which “inhibition effect on different cancer cell lines (in words)” value did it give?
A: The value was “significant inhibition effect”.

Q: How did the “inhibition effect on different cancer cell lines (in words)” value turn out when `CCCc1nc(C(C)(C)O)c(C(=O)OCc2oc(=O)oc2C)n1Cc1ccc(-c2ccccc2-c2nnn[nH]2)cc1` [Olmesartan medoxomil (Benicar), Olmesartan medoxomil] was run?
A: The value was “significant inhibition effect”.

Q: With `CCOC(=O)C1=C[C@@H](OC(CC)CC)[C@H](NC(C)=O)[C@@H](N)C1` [Oseltamivir phosphate (Tamiflu), Oseltamivir phosphate] as the compound, how does the “inhibition effect on different cancer cell lines (in words)” value read?
A: The value was “significant inhibition effect”.

Q: For `CCCCCCCCOc1ccccc1C(=O)Nc1ccc(C(=O)OCC[N+](C)(CC)CC)cc1` [Otilonium Bromide], which “inhibition effect on different cancer cell lines (in words)” value is on record?
A: Its value is “significant inhibition effect”.

Q: How did the “inhibition effect on different cancer cell lines (in words)” value turn out when `C=CCOc1ccccc1OCC(O)CNC(C)C` (stereo not shown) [Oxprenolol HCl] was run?
A: Its value is “significant inhibition effect”.

Q: How did the “inhibition effect on different cancer cell lines (in words)” value turn out when `CCC(CC)[C@H](NC(C)=O)[C@@H]1[C@H](O)[C@@H](C(=O)O)C[C@H]1N=C(N)N.O.O.O` [Peramivir Trihydrate] was run?
A: Its value is “significant inhibition effect”.

Q: Which “inhibition effect on different cancer cell lines (in words)” value does the source give for `Nc1ccc(/N=N/c2ccccc2)c(N)n1` [Phenazopyridine HCl] here?
A: The value was “significant inhibition effect”.

Q: `O=C1c2ccccc2C(=O)C1c1ccccc1` [Phenindione (Rectadione), Phenindione] was tested. Which “inhibition effect on different cancer cell lines (in words)” value did it give?
A: Its value is “significant inhibition effect”.

Q: With `Cc1ccc(N(CC2=NCCN2)c2cccc(O)c2)cc1` [Phentolamine mesilate] as the compound, how does the “inhibition effect on different cancer cell lines (in words)” value read?
A: The value was “significant inhibition effect”.

Q: `CC(N/C(=N\C#N)Nc1ccncc1)C(C)(C)C` (stereo not shown) [Pinacidil] was tested. Which “inhibition effect on different cancer cell lines (in words)” value did it give?
A: The value was “significant inhibition effect”.

Q: For `CC(C)NCC(O)COc1cccc2[nH]ccc12` (stereo not shown) [Pindolol], which “inhibition effect on different cancer cell lines (in words)” value is on record?
A: The value was “significant inhibition effect”.

Q: For `C[C@]12CCC(=O)C=C1C=C[C@@H]1[C@@H]2CC[C@@]2(C)[C@H]1CC[C@@]2(O)CCC(=O)O` [Potassium Canrenoate], which “inhibition effect on different cancer cell lines (in words)” value is on record?
A: The value was “significant inhibition effect”.

Q: `CC(=O)Oc1cc2c(s1)CCN(C(C(=O)C1CC1)c1ccccc1F)C2` (stereo not shown) [Prasugrel (Effient), Prasugrel] was tested. Which “inhibition effect on different cancer cell lines (in words)” value did it give?
A: The value was “significant inhibition effect”.

Q: For `CC(C)(Sc1cc(C(C)(C)C)c(O)c(C(C)(C)C)c1)Sc1cc(C(C)(C)C)c(O)c(C(C)(C)C)c1` [Probucol], which “inhibition effect on different cancer cell lines (in words)” value is on record?
A: The value was “significant inhibition effect”.

Q: With `CC(C)NCC(O)COc1cccc2ccccc12` (stereo not shown) [Propranolol HCl] as the compound, how does the “inhibition effect on different cancer cell lines (in words)” value read?
A: The value was “significant inhibition effect”.

Q: With `CN(C)C(=O)Oc1ccc[n+](C)c1` [Pyridostigmine Bromide (Mestinon), Pyridostigmine Bromide] as the compound, how does the “inhibition effect on different cancer cell lines (in words)” value read?
A: The value was “significant inhibition effect”.

Q: How did the “inhibition effect on different cancer cell lines (in words)” value turn out when `C=C[C@H]1C[N@@]2CC[C@H]1C[C@H]2[C@H](O)c1ccnc2ccc(OC)cc12` [Quinine hydrochloride dihydrate] was run?
A: The value was “significant inhibition effect”.

Q: For `COc1ccccc1OCC(O)CN1CCN(CC(=O)Nc2c(C)cccc2C)CC1` (stereo not shown) [Ranolazine dihydrochloride], which “inhibition effect on different cancer cell lines (in words)” value is on record?
A: Its value is “significant inhibition effect”.

Q: `COC(=O)[C@H]1[C@H]2C[C@@H]3c4[nH]c5cc(OC)ccc5c4CCN3C[C@H]2C[C@@H](OC(=O)c2cc(OC)c(OC)c(OC)c2)[C@@H]1OC` [Reserpine] was tested. Which “inhibition effect on different cancer cell lines (in words)” value did it give?
A: The value was “significant inhibition effect”.

Q: With `C[C@H](Cc1cc2c(c(C(N)=O)c1)N(CCCO)CC2)NCCOc1ccccc1OCC(F)(F)F` [Silodosin (Rapaflo), Silodosin] as the compound, how does the “inhibition effect on different cancer cell lines (in words)” value read?
A: Its value is “significant inhibition effect”.

Q: For `O=C(O[C@H]1CN2CCC1CC2)N1CCc2ccccc2[C@@H]1c1ccccc1` [Solifenacin succinate], which “inhibition effect on different cancer cell lines (in words)” value is on record?
A: The value was “significant inhibition effect”.

Reference: US20170304388A1, “NEW INDICATION OF CARDIOVASCULAR DRUGS FOR PREPARATION OF CANCER INHIBITION PHARMACEUTICAL COMPOSITION” (LAUNX BIOMEDICAL CO., LTD., priority 2014, published 2017)
